Measurements: paper PMC6704710, “Preclinical evaluation of 3D185, a novel potent inhibitor of FGFR1/2/3 and CSF-1R, in FGFR-dependent and macrophage-dominant cancer models” (Journal of Experimental & Clinical Cancer Research : CR, 2019)

Key:
Test in all cases: Eurofins kinase panel
Assay type in all cases: biochemical
Conditions in all cases: read-out: Inhibition rate (%)
[1] = molecular target: T1, SAPK3(h) (Homo sapiens, UniProt P53778)
T1 construct: purchased Eurofins (KinaseProfiler)
T1 sequence (P53778 1-367): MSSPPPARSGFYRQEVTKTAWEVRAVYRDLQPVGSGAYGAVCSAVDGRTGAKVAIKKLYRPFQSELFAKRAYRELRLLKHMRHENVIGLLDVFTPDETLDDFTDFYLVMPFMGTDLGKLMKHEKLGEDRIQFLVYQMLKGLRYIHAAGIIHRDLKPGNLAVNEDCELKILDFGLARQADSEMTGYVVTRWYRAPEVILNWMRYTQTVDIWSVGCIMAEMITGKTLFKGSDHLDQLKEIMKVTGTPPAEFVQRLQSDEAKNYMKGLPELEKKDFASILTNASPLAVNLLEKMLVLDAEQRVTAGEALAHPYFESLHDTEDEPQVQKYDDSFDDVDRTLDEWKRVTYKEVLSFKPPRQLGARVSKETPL

[2] = molecular target: T2, mTOR/FKBP12(h) (Homo sapiens, UniProt P42345)
T2 construct: purchased Eurofins (KinaseProfiler)
T2 sequence (P42345 1362-2549 limits assumed): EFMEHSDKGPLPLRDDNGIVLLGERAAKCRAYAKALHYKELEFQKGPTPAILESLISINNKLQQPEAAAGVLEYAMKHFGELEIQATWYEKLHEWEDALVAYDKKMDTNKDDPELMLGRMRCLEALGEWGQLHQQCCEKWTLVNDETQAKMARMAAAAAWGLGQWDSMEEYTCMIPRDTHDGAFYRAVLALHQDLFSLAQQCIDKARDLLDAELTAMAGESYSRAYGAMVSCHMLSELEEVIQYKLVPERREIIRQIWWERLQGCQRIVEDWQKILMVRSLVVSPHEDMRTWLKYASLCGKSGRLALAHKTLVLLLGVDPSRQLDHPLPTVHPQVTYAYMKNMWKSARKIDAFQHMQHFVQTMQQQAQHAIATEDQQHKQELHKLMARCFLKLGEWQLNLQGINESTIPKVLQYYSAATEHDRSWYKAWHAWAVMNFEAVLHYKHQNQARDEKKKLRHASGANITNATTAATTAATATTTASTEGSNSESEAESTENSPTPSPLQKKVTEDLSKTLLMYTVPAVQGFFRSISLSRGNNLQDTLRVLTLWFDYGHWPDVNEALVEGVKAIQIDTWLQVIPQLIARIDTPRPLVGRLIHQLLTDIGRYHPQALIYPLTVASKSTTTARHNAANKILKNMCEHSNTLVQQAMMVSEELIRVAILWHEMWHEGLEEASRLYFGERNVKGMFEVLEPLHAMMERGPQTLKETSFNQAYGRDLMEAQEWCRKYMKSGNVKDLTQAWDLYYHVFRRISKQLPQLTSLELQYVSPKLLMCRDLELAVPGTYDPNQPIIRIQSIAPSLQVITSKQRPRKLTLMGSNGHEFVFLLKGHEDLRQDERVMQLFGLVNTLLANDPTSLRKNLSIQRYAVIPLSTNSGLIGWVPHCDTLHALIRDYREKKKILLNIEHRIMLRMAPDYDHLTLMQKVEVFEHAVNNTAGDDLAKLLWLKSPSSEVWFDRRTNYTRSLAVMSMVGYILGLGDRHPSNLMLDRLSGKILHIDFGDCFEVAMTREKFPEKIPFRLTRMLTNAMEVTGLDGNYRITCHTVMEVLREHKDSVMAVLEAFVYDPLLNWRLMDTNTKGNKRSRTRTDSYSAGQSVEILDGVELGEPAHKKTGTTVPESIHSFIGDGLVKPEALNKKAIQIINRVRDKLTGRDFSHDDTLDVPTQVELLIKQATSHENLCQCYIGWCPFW

[3] = molecular target: T3, Tie2(R849W)(h) (Homo sapiens, UniProt Q02763, R849W)
T3 construct: purchased Eurofins (KinaseProfiler)
T3 sequence (Q02763 23-1124 R849W): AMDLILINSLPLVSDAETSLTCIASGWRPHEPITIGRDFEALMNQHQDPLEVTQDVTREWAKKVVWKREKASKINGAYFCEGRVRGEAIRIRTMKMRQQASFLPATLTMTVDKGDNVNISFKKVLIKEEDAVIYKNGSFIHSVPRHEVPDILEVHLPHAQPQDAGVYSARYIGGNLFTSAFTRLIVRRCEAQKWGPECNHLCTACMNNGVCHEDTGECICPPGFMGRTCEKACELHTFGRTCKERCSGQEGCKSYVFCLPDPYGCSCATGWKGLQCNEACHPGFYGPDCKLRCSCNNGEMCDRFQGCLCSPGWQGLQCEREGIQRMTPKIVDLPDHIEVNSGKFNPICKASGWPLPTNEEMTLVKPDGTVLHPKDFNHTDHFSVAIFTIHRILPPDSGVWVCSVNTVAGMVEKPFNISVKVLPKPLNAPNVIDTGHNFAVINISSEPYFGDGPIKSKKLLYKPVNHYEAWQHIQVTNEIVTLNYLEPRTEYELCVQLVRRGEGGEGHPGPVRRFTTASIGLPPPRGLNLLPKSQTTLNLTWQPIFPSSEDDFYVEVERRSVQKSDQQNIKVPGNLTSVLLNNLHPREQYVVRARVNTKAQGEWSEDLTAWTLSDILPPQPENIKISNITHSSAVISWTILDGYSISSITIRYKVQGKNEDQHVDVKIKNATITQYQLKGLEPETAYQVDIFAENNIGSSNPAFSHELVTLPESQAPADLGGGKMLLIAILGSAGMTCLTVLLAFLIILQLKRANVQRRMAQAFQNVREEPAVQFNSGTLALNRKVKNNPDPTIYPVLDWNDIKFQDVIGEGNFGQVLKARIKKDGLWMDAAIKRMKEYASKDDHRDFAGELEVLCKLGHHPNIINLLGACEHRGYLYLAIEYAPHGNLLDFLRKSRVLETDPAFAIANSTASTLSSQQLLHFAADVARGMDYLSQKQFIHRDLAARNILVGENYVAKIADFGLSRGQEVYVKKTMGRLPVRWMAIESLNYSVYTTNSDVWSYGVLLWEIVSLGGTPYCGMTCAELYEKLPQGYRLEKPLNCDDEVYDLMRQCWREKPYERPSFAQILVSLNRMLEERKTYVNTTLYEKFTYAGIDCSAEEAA

[4] = molecular target: T4, MLK2(h) (Homo sapiens, UniProt Q02779)
T4 construct: purchased Eurofins (KinaseProfiler)

[5] = molecular target: T5, CLK4(h) (Homo sapiens, UniProt Q9HAZ1)
T5 construct: purchased Eurofins (KinaseProfiler)
T5 sequence (Q9HAZ1 whole entry): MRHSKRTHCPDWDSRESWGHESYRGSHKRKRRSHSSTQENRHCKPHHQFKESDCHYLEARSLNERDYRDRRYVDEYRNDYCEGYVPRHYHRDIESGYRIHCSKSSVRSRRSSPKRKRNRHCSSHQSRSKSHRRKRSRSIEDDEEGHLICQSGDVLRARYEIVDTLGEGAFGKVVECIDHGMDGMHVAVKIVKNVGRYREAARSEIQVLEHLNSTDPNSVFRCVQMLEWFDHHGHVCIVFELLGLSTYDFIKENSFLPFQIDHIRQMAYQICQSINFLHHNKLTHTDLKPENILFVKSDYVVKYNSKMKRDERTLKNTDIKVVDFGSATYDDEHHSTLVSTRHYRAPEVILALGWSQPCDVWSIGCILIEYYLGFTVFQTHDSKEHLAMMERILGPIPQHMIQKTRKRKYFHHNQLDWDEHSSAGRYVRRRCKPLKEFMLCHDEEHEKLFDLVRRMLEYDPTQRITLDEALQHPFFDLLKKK

[6] = molecular target: T6, TrkC(h) (Homo sapiens, UniProt Q16288)
T6 construct: purchased Eurofins (KinaseProfiler)
T6 sequence (Q16288 32-839): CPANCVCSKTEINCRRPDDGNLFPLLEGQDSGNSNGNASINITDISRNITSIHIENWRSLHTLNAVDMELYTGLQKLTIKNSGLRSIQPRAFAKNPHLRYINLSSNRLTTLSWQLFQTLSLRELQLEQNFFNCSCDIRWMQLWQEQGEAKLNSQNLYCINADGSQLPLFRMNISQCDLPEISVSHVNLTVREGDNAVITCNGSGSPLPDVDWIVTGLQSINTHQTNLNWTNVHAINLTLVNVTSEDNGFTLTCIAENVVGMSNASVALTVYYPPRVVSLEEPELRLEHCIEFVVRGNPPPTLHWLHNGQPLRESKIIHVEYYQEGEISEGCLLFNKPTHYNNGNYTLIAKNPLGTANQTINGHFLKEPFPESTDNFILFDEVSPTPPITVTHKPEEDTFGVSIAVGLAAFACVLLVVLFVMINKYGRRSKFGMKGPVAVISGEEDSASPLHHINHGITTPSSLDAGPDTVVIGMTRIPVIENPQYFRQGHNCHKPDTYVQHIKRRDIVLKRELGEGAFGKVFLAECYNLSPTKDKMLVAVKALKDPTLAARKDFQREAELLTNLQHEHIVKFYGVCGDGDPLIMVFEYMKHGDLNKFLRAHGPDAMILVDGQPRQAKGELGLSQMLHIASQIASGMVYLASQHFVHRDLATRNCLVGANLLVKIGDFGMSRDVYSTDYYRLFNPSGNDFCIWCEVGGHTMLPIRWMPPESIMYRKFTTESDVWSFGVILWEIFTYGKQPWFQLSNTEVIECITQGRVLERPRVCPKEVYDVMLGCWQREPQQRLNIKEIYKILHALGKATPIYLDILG

[7] = molecular target: T7, Ret(V804M)(h) (Homo sapiens, UniProt P07949, V804M)
T7 construct: purchased Eurofins (KinaseProfiler)

[8] = molecular target: T8, ZIPK(h) (Homo sapiens, UniProt O43293)
T8 construct: purchased Eurofins (KinaseProfiler)

[9] = molecular target: T9, EphA8(h) (Homo sapiens, UniProt P29322)
T9 construct: purchased Eurofins (KinaseProfiler)
T9 sequence (P29322 28-1005): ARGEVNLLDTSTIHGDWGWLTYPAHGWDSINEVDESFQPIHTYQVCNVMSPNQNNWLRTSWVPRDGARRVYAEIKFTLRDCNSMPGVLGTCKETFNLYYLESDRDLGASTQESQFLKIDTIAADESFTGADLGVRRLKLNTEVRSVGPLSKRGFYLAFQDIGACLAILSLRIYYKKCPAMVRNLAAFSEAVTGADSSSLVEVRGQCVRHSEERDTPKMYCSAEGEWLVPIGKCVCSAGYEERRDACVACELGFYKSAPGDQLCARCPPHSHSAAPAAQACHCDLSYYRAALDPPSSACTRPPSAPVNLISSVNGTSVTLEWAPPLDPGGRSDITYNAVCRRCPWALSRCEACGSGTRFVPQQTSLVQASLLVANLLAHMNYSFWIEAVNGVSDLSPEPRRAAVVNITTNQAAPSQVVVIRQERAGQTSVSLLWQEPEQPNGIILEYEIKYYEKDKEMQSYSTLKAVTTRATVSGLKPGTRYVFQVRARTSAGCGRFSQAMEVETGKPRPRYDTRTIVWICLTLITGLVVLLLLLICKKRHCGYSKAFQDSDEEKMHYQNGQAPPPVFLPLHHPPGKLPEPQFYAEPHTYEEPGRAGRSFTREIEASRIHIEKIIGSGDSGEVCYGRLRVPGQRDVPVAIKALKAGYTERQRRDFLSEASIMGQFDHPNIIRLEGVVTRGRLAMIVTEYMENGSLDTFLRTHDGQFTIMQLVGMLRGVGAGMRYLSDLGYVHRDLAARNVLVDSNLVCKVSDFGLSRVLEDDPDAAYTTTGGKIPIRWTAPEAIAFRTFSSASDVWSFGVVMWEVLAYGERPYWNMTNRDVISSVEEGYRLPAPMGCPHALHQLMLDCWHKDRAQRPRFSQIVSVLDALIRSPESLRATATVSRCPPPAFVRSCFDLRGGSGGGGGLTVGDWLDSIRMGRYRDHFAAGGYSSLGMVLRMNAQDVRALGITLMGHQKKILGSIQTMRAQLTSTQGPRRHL

[10] = molecular target: T10, TTBK1(h) (Homo sapiens, UniProt Q5TCY1)
T10 construct: purchased Eurofins (KinaseProfiler)
T10 sequence (Q5TCY1 whole entry): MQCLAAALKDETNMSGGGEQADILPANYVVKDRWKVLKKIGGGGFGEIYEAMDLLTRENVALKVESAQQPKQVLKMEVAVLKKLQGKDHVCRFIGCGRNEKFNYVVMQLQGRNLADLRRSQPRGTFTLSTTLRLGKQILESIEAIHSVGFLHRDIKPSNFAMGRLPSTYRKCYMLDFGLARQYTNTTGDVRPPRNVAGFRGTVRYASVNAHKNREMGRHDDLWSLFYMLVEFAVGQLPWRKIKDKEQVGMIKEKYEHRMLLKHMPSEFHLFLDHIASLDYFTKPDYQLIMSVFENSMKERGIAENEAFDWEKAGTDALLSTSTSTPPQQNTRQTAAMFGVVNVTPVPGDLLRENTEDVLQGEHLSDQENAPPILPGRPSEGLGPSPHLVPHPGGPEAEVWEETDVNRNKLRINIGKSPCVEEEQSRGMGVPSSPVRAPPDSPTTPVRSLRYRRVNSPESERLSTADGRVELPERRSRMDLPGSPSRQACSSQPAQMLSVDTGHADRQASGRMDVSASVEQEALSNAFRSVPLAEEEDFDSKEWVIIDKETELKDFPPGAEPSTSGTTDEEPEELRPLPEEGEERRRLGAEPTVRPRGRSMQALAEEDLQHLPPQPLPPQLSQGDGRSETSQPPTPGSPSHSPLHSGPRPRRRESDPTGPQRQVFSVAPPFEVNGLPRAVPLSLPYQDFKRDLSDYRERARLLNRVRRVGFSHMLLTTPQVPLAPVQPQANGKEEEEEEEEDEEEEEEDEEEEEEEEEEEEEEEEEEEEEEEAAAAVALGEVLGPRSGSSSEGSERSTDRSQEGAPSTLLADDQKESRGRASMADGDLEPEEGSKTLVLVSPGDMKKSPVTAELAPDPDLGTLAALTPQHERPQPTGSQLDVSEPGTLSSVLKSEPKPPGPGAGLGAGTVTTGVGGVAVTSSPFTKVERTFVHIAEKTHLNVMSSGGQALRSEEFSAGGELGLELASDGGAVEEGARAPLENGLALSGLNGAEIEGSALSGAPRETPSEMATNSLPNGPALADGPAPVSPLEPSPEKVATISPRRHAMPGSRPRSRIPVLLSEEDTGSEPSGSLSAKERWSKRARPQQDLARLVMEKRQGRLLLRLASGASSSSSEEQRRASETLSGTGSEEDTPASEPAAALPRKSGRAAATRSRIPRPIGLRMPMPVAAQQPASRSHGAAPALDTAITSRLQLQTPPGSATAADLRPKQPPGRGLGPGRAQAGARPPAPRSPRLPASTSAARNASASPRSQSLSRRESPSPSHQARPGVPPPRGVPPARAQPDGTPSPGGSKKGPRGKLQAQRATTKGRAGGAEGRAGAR

With COc1cc(OC)c(Cl)c(-c2ccc3c(NC(=O)c4ccc(N5CCNC(C)(C)C5)cc4)n[nH]c3n2)c1Cl [3D185] as the compound, how does the inhibition at 0.01 µM ([1]; 10 nM) read?
The inhibition at 0.01 µM was -4%.

What about the inhibition at 0.1 µM ([1]; 100 nM) of the same compound?
The inhibition at 0.1 µM was -12%.

And the inhibition at 1 µM ([1]; 1000 nM)?
The inhibition at 1 µM was -7%.

What about the inhibition at 0.01 µM ([2]; 10 nM) of the same compound?
Its inhibition at 0.01 µM is 1%.

And the inhibition at 0.1 µM ([2]; 100 nM)?
The inhibition at 0.1 µM was 0%.

What about the inhibition at 1 µM ([2]; 1000 nM) of the same compound?
Its inhibition at 1 µM is 2%.

And the inhibition at 0.01 µM ([3]; 10 nM)?
Its inhibition at 0.01 µM is -6%.

And the inhibition at 0.1 µM ([3]; 100 nM)?
Its inhibition at 0.1 µM is 39%.

What about the inhibition at 1 µM ([3]; 1000 nM) of the same compound?
Its inhibition at 1 µM is 86%.

And the inhibition at 0.01 µM ([4]; 10 nM)?
The inhibition at 0.01 µM was 4%.

And the inhibition at 0.1 µM ([4]; 100 nM)?
The inhibition at 0.1 µM was 2%.

And the inhibition at 1 µM ([4]; 1000 nM)?
Its inhibition at 1 µM is 24%.

What about the inhibition at 0.01 µM ([5]; 10 nM) of the same compound?
The inhibition at 0.01 µM was 5%.

What about the inhibition at 0.1 µM ([5]; 100 nM) of the same compound?
Its inhibition at 0.1 µM is 19%.

And the inhibition at 1 µM ([5]; 1000 nM)?
The inhibition at 1 µM was 27%.

What about the inhibition at 0.01 µM ([6]; 10 nM) of the same compound?
Its inhibition at 0.01 µM is 36%.

And the inhibition at 0.1 µM ([6]; 100 nM)?
Its inhibition at 0.1 µM is 85%.

And the inhibition at 1 µM ([6]; 1000 nM)?
The inhibition at 1 µM was 98%.

And the inhibition at 0.01 µM ([7]; 10 nM)?
The inhibition at 0.01 µM was -3%.

And the inhibition at 0.1 µM ([7]; 100 nM)?
The inhibition at 0.1 µM was -2%.

And the inhibition at 1 µM ([7]; 1000 nM)?
Its inhibition at 1 µM is 56%.

What about the inhibition at 0.01 µM ([8]; 10 nM) of the same compound?
The inhibition at 0.01 µM was -3%.

What about the inhibition at 0.1 µM ([8]; 100 nM) of the same compound?
Its inhibition at 0.1 µM is 0%.

What about the inhibition at 1 µM ([8]; 1000 nM) of the same compound?
The inhibition at 1 µM was 2%.

And the inhibition at 0.01 µM ([9]; 10 nM)?
The inhibition at 0.01 µM was 1%.

And the inhibition at 0.1 µM ([9]; 100 nM)?
Its inhibition at 0.1 µM is 5%.

And the inhibition at 1 µM ([9]; 1000 nM)?
Its inhibition at 1 µM is 29%.

What about the inhibition at 0.01 µM ([10]; 10 nM) of the same compound?
Its inhibition at 0.01 µM is 2%.

What about the inhibition at 0.1 µM ([10]; 100 nM) of the same compound?
The inhibition at 0.1 µM was -7%.

And the inhibition at 1 µM ([10]; 1000 nM)?
The inhibition at 1 µM was -6%.
